Results taken from patent US20250144067A1, “PERSONALIZED STARVATION THERAPY FOR CANCER” (Faeth Therapeutics, Inc., priority 2021, published 2025).
Structures can show the parent of a compound that is named as a salt. Where two headings read alike, the source gives them in different places.

Tests used:
[1] = tested on: NCI-H292 lung cancer cells; assay: FDA drug screening, complete media vs cholesterol-free media without statin (TABLE 1); format: cell-based, human
[2] = tested on: NCI-H292 lung cancer cells; assay: FDA drug screening, complete media vs cholesterol-free media with simvastatin (TABLE 2); format: cell-based, human
[3] = NCI-H292 cells, cholesterol-free media without statin
[4] = complete vs cholesterol-free media, greater than 0 enhanced anti-cancer activity, about 0 neutral, below 0 antagonists
[5] = NCI-H292 cells, drug in cholesterol-free media with simvastatin 0.04 μM
[6] = NCI-H292 cells, drug in complete media
[7] = complete media vs cholesterol-free media + simvastatin (0.04 μM), >0 enhanced anti-cancer activity, about 0 neutral, <0 antagonist
[8] = Complete minus Cholesterol-free, >0 enhanced anti-cancer activity, about 0 neutral, <0 antagonist
[9] = NCI-H292 cells, cholesterol-free media without statin, FDA drug library screen
[10] = NCI-H292 cells, complete media, FDA drug library screen
[11] = complete vs cholesterol-free media, >0 enhanced anti-cancer activity, about 0 neutral, <0 antagonist
[12] = NCI-H292 cells, FDA drug library screen, cholesterol-free media with simvastatin 0.04 μM
[13] = NCI-H292 cells, cholesterol-free media with simvastatin 0.04 μM, cell growth value in FDA drug screen
[14] = NCI-H292 cells, complete media, cell growth value in FDA drug screen
[15] = complete media minus cholesterol-free media + simvastatin, >0 enhanced anti-cancer activity, about 0 neutral, <0 antagonist
[16] = NCI-H292 cells, cholesterol-free media with simvastatin 0.04 μM, FDA drug library screen (TABLE 2)
[17] = NCI-H292 cells, complete media, FDA drug library screen (TABLE 2)
[18] = complete media minus cholesterol-free media + simvastatin (0.04 μM), >0 enhanced anti-cancer activity, about 0 neutral, <0 antagonist
[19] = complete vs cholesterol-free media, […]
[20] = NCI-H292 cells, FDA drug library screen, complete media
[21] = complete media vs cholesterol-free media + simvastatin (0.04 μM), […]
[22] = NCI-H292 cells, FDA library drug in cholesterol-free media with simvastatin 0.04 μM
[23] = NCI-H292 cells, FDA library drug in complete media
[24] = complete media minus cholesterol-free media + simvastatin (0.04 μM), […]
[25] = Complete minus Cholesterol-free, greater than 0 enhanced anti-cancer activity, about 0 neutral, below 0 antagonists
[26] = NCI-H292 cells in cholesterol-free media without statin
[27] = NCI-H292 cells in complete media

CCCc1nc(C(C)(C)O)c(C(=O)O)n1Cc1ccc(-c2ccccc2-c2nnn[nH]2)cc1 [Olmesartan]
Cholesterol-free [1, 3]: 1.93 | Complete ([1]; NCI-H292 cells, complete media): 1.465 | Difference [1, 4]: −0.46 | Cholesterol-free media + simvastatin (0.04 μM) [2, 5]: 1.131 | Complete Media [2, 6]: 0.942 | Difference [2, 7]: −0.19

NC(=O)c1nc(F)c[nH]c1=O [Favipiravir]
Difference [1, 8]: −0.06 | Cholesterol-free [1, 9]: 1.059 | Complete [1, 10]: 0.9966 | Cholesterol-free media + simvastatin (0.04 μM) [2, 5]: 1.347 | Complete Media [2, 6]: 1.105 | Difference [2, 7]: −0.24

CS(=O)(=O)c1ccc(C2=C(c3ccccc3)C(=O)OC2)cc1 [Rofecoxib]
Cholesterol-free [1, 9]: 1.041 | Difference [1, 11]: 0.11 | Cholesterol-free media + simvastatin (0.04 μM) [2, 12]: 1.252 | Difference [2, 7]: −0.11

CC(=O)Nc1cccc(-n2c(=O)n(C3CC3)c(=O)c3c(Nc4ccc(I)cc4F)n(C)c(=O)c(C)c32)c1 [Trametinib]
Difference [1, 8]: −0.06 | Cholesterol-free [1, 9]: 0.4164 | Complete [1, 10]: 0.3595 | Cholesterol-free media + simvastatin (0.04 μM) [2, 13]: 0.2423 | Complete Media [2, 14]: 0.2586 | Difference [2, 15]: 0.02

O=C(O)c1cc(-c2ccc(F)cc2F)ccc1O [Diflunisal]
Cholesterol-free [1, 9]: 1.041 | Complete [1, 10]: 1.674 | Difference [1, 11]: 0.63 | Cholesterol-free media + simvastatin (0.04 μM) [2, 16]: 0.785 | Complete Media [2, 17]: 0.7827 | Difference [2, 18]: 0.00

Cinepazide (Maleate)
Cholesterol-free [1, 9]: 0.7192 | Complete [1, 10]: 1.265 | Difference [1, 19]: 0.55 | Cholesterol-free media + simvastatin (0.04 μM) [2, 12]: 1.132 | Complete Media [2, 20]: 1.001 | Difference [2, 21]: −0.13

Nelfinavir (Mesylate)
Difference [1, 8]: −0.02 | Cholesterol-free [1, 9]: 1.193 | Complete [1, 10]: 1.169 | Cholesterol-free media + simvastatin (0.04 μM) [2, 22]: 1.565 | Complete Media [2, 23]: 1.199 | Difference [2, 7]: −0.37

Cc1ccc([C@@H]2O[C@H](CO)[C@@H](O)[C@H](O)[C@H]2O)cc1Cc1ccc(-c2ccc(F)cc2)s1 [Canagliflozin]
Cholesterol-free [1, 3]: 1.159 | Complete ([1]; NCI-H292 cells, complete media): 0.8206 | Difference [1, 19]: −0.34 | Cholesterol-free media + simvastatin (0.04 μM) [2, 16]: 1.109 | Complete Media [2, 17]: 1.104 | Difference [2, 24]: −0.01

NCCCC(N)(C(=O)O)C(F)F (stereo not shown) [Eflornithine (hydrochloride hydrate)]
Difference [1, 8]: −0.22 | Cholesterol-free [1, 3]: 0.965 | Complete ([1]; NCI-H292 cells, complete media): 0.7419 | Cholesterol-free media + simvastatin (0.04 μM) [2, 5]: 1.426 | Complete Media [2, 6]: 1.224 | Difference [2, 7]: −0.20

COC(=O)C1=C(C)NC(C)=C(C(=O)OC(C)C)C1c1cccc2nonc12 (stereo not shown) [Isradipine]
Cholesterol-free [1, 3]: 1.16 | Complete ([1]; NCI-H292 cells, complete media): 0.8034 | Difference [1, 4]: −0.36 | Cholesterol-free media + simvastatin (0.04 μM) [2, 12]: 0.7485 | Complete Media [2, 20]: 1.061 | Difference [2, 15]: 0.31

N[C@@H](CCC(=O)O)C(=O)[O-].[Na+] [L-Glutamic acid monosodium salt]
Difference ([1]; Complete minus Cholesterol-free, […]): −0.03 | Cholesterol-free [1, 9]: 1.093 | Complete [1, 10]: 1.059 | Cholesterol-free media + simvastatin (0.04 μM) [2, 22]: 1.191 | Complete Media [2, 23]: 0.778 | Difference [2, 21]: −0.41

O=C(c1cc(Cc2n[nH]c(=O)c3ccccc23)ccc1F)N1CCN(C(=O)C2CC2)CC1 [Olaparib]
Difference [1, 25]: −0.72 | Cholesterol-free [1, 26]: 1.436 | Complete [1, 27]: 0.7169 | Cholesterol-free media + simvastatin (0.04 μM) [2, 16]: 0.8331 | Complete Media [2, 17]: 0.8347 | Difference [2, 18]: 0.00

Cc1ccc(-c2cc(C(F)(F)F)nn2-c2ccc(S(N)(=O)=O)cc2)cc1 [Celecoxib]
Cholesterol-free [1, 3]: 1.362 | Complete ([1]; NCI-H292 cells, complete media): 0.9472 | Difference [1, 4]: −0.42 | Cholesterol-free media + simvastatin (0.04 μM) [2, 13]: 1.271 | Complete Media [2, 14]: 1.302 | Difference [2, 15]: 0.03

O=S(=O)(O)CCS [Mesna]
Difference [1, 8]: −0.29 | Cholesterol-free [1, 3]: 1.145 | Complete ([1]; NCI-H292 cells, complete media): 0.8536 | Cholesterol-free media + simvastatin (0.04 μM) [2, 12]: 1.227 | Complete Media [2, 20]: 1.122 | Difference [2, 7]: −0.10

N[C@@H]1C[C@H]1c1ccccc1.N[C@@H]1C[C@H]1c1ccccc1.O=S(=O)(O)O [Tranylcypromine (hemisulfate)]
Cholesterol-free [1]: 1.175 | Complete [1]: 0.8249 | Difference [1]: −0.35 | Cholesterol-free media + simvastatin (0.04 μM) [2]: 0.8773 | Complete Media [2]: 0.7026 | Difference [2]: −0.17

C=CC(=O)Nc1cccc(Oc2nc(Nc3ccc(N4CCN(C)CC4)cc3)nc3ccsc23)c1 [Olmutinib]
Cholesterol-free [1, 9]: 0.5571 | Complete [1, 10]: 0.798 | Difference [1, 11]: 0.24 | Cholesterol-free media + simvastatin (0.04 μM) [2, 12]: 0.5571 | Complete Media [2, 20]: 0.4482 | Difference [2, 7]: −0.11

NC(=O)[C@@H]1CC[C@@H]2CN1C(=O)N2OS(=O)(=O)O [Avibactam (sodium hydrate)]
Cholesterol-free [1, 9]: 0.6447 | Complete [1, 10]: 0.883 | Difference [1, 11]: 0.24 | Cholesterol-free media + simvastatin (0.04 μM) [2, 12]: 1.124 | Complete Media [2, 20]: 1.029 | Difference [2, 7]: −0.09

CCOc1nc2cccc(C(=O)OC(C)OC(=O)OC3CCCCC3)c2n1Cc1ccc(-c2ccccc2-c2nnn[nH]2)cc1 (stereo not shown) [Candesartan Cilexetil]
Difference ([1]; Complete minus Cholesterol-free, greater than 0 enhanced anti-cancer activity, about 0 neutral, below 0 antagonist): −0.16 | Cholesterol-free ([1]; NCI-H292 cells, FDA drug library screen, cholesterol-free media without statin): 1.093 | Complete [1, 20]: 0.9304 | Cholesterol-free media + simvastatin (0.04 μM) [2, 5]: 1.18 | Complete Media [2, 6]: 0.9738 | Difference [2, 7]: −0.21

CC(C)(S)[C@@H](N)C(=O)O [Penicillamine]
Difference [1, 25]: −0.55 | Cholesterol-free [1, 26]: 1.556 | Complete [1, 27]: 1.005 | Cholesterol-free media + simvastatin (0.04 μM) [2, 5]: 1.252 | Complete Media [2, 6]: 1.083 | Difference [2, 7]: −0.17

CC(C)OC(=O)[C@H](C)N[P@](=O)(OC[C@H]1O[C@@H](n2ccc(=O)[nH]c2=O)[C@](C)(F)[C@@H]1O)Oc1ccccc1 [Sofosbuvir]
Cholesterol-free [1, 3]: 1.138 | Complete ([1]; NCI-H292 cells, complete media): 0.6875 | Difference [1, 19]: −0.45 | Cholesterol-free media + simvastatin (0.04 μM) [2, 16]: 0.9955 | Complete Media [2, 17]: 0.9628 | Difference [2, 24]: −0.03

O=C(NC[C@H]1CN(c2ccc(N3CCOCC3=O)cc2)C(=O)O1)c1ccc(Cl)s1 [Rivaroxaban]
Difference [1, 8]: −0.30 | Cholesterol-free [1, 3]: 1.076 | Complete ([1]; NCI-H292 cells, complete media): 0.7773 | Cholesterol-free media + simvastatin (0.04 μM) [2, 12]: 1.199 | Complete Media [2, 20]: 1.057 | Difference [2, 7]: −0.14

CN1C(=O)CC(c2ccccc2)C1=O (stereo not shown) [Phensuximide]
Difference [1, 8]: −0.30 | Cholesterol-free [1, 3]: 1.128 | Complete ([1]; NCI-H292 cells, complete media): 0.8334 | Cholesterol-free media + simvastatin (0.04 μM) [2, 5]: 1.556 | Complete Media [2, 6]: 1.333 | Difference [2, 7]: −0.22

Cc1ccc(S(=O)(=O)NC(=O)NN2CCCCCC2)cc1 [Tolazamide]
Difference [1, 25]: −0.50 | Cholesterol-free [1, 26]: 1.412 | Complete [1, 27]: 0.9106 | Cholesterol-free media + simvastatin (0.04 μM) [2, 13]: 1.047 | Complete Media [2, 14]: 1.177 | Difference [2, 15]: 0.13
